Patent US20230235374A1, “High Throughput Assays for Detecting Translation Readthrough Inducers” (The Trustees of the University of Pennsylvania, priority 2021, published 2023)

Key:
80S.IRES complex = experiment: [3H]-AzAt photoaffinity labeling of 80S.IRES complex; format: binding, shrimp (Artemia salina); details: FIG. 2C
Method: Photoaffinity labeling with [^3H]-AzAt. Samples in Buffer 4, typically 20 μL, were incubated in the dark (20 min for Stop-POST5 and 80S-IRES complexes, 2 min for release factors) with various concentrations of [^3H]-AzAt at 37° C., transferred to a UV-transparent cuvette which was covered with parafilm to prevent evaporation, and irradiated in a Rayonet photochemical reactor equipped with 300 nm UV lamps for 5 min at room temperature. This was followed by quenching with 2 mM DTT at 37° C. for 5 min under ambient light. The irradiation time gave complete photolysis of the phenyl azide moiety in AzAt. Photolysis was also complete at 5 min in the presence of 1 mM ataluren, ruling out internal filtering effects.
Stop-POST5 and 80S-IRES complexes. 1 μM solutions of either Stop-POST5 or 80S-S.IRES, determined by A260, were photolabeled by [^3H]-AzAt. The sample was then either directly purified by ultracentrifugation through a sucrose cushion to determine the photoincorporation stoichiometry in the complex, or subjected to phenol/chloroform extraction to determine the photoincorporation stoichiometry in the total RNA. […]

[1] = system: Cy5-hRF1.hRF3.GTP binding to Stop-POST5; experiment: smFRET Cy5-hRF1.hRF3.GTP binding to Stop-POST5; parameters: species or system human; details: ataluren 1 mM, FIG. 15C
Source text: Several important results have been obtained with Cy5-heRF1 which further elucidate the mechanism of termination shown in FIGS. 14A and 14B. Cy5-heRF1 forms a catalytically active RFC with unlabeled heRF3, which, when added to the Stop-POST5 complex, generated a transient FRET signal with FKVRQ-tRNA^Gln(Cy3) bound in the P-site (FIGS. 15A and 15B).

[2] = target: T1, near-cognate aa-tRNA.eEF1A.GTP complex (TC) binding at a stop codon (Saccharomyces cerevisiae, UniProt P02994); details: Ng et al., 2021; cited from earlier work
T1 sequence (P02994 2-458 limits assumed): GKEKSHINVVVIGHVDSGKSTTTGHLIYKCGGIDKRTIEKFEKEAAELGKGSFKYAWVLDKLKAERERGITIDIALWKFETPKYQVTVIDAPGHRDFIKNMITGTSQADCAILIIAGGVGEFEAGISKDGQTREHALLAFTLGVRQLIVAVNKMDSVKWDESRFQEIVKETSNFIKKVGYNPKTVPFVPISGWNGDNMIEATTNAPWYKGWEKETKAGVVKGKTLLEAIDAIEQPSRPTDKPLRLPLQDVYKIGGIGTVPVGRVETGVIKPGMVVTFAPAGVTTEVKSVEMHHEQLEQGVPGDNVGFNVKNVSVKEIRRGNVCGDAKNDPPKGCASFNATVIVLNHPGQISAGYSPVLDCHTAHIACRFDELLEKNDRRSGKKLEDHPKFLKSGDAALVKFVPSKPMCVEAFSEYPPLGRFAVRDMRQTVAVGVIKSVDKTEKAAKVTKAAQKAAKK

| Structure (SMILES) | photoincorporation stoichiometry into 80S.IRES, lower vs. Stop-POST5 (80S.IRES complex) | effect on rate of Cy5-hRF1.hRF3.GTP binding to Stop-POST5 [1] | effect on productive binding of near-cognate TC at a stop codon [2] |
| --- | --- | --- | --- |
| [N-]=[N+]=Nc1ccc(-c2nc(-c3cccc(C(=O)O)c3)no2)cc1 [AzAt] | 25% |  |  |
| O=C(O)c1cccc(-c2noc(-c3ccccc3F)n2)c1 [Ataluren] |  | strongly inhibited | no effect |
